Measured values as given in patent publication US5795612A, “Aspartyldipeptideamine derivatives and sweetner” (Ajinomoto Co., Inc., priority 1995, dated 1998).
Residues, ends and D or L forms follow the SMILES beside them.

How the values were obtained:
[1] = Sensory evaluation of sweetness potency relative to sugar; details: for Sweetnes Potency: Table 1, compared with 4% aqueous sucrose solution; for Sweetness Potency (sugar=1): sensory evaluation
[2] = Stability (half-life) heated to 70° C. in a phosphate buffer (pH=3); type: physicochemical

half-life [2]	SMILES	Sweetnes Potency [1]	Sweetness Potency (sugar=1) [1]
	COCC(NC(=O)[C@H](NC(=O)[C@@H](N)CC(=O)O)C(C)C)c1ccco1 (mixture of isomers) [Example 9, α-L-aspartyl-D-valine (RS)-α-furyl-β-methoxyethylamide]	200	Approximately 200
	CC[C@H](NC(=O)[C@@H](CC)NC(=O)[C@@H](N)CC(=O)O)c1ccc(O)cc1 [Example 1, α-L-aspartyl-D-α-aminobutyric acid (S)-α-ethyl-p-hydroxybenzylamide]	2000	2000
	CC[C@@H](NC(=O)[C@@H](N)CC(=O)O)C(=O)N[C@@H](COC)c1ccc(O)cc1 [Example 2, α-L-aspartyl-D-α-aminobutyric acid (R)-α-methoxymethyl-p-hydroxybenzylamide]	1500	1500
	CC[C@H](NC(=O)[C@H](NC(=O)[C@@H](N)CC(=O)O)C(C)C)c1ccc(O)cc1 [Example 3, α-L-aspartyl-D-valine (S)-α-ethyl-p-hydroxybenzylamide]	1500	1500
	COC[C@H](NC(=O)[C@H](NC(=O)[C@@H](N)CC(=O)O)C(C)C)c1ccc(O)cc1 [Example 4, α-L-aspartyl-D-valine (R)-α-methoxymethyl-p-hydroxybenzylamide]	1250	1250
	CC(C)[C@@H](NC(=O)[C@@H](N)CC(=O)O)C(=O)N[C@@H](C)c1ccc(O)cc1 [Example 5, α-L-aspartyl-D-valine (S)-α-methyl-p-hydroxybenzylamide]	1000	1000
	CC[C@H](NC(=O)[C@H](NC(=O)[C@@H](N)CC(=O)O)C(C)C)c1ccc(Cl)cc1 [Example 6, α-L-aspartyl-D-valine (S)-α-ethyl-p-chlorobenzylamide]	1250	1250
	CC[C@H](NC(=O)[C@H](NC(=O)[C@@H](N)CC(=O)O)C(C)C)c1ccncc1 [Example 7, α-L-aspartyl-D-valine (S)-α-4-pyridylpropylamide]	300	Approximately 300
	COC[C@H](NC(=O)[C@H](NC(=O)[C@@H](N)CC(=O)O)C(C)C)c1ccc(OC)cc1 [Example 8, α-L-aspartyl-D-valine (R)-α-methoxymethyl-p-methoxybenzylamide]	250	Approximately 250
approximately 1 days	COC(=O)[C@H](Cc1ccccc1)NC(=O)[C@@H](N)CC(=O)O [aspartame] (H-Asp-Phe-OMe)		
